Biological target: T1, adenine nucleotide translocase 1 (ANT1) (Bos taurus, UniProt P02722)
T1 construct: gene SLC25A4; native ANT in isolated bovine heart mitochondria
T1 sequence (P02722 2-298): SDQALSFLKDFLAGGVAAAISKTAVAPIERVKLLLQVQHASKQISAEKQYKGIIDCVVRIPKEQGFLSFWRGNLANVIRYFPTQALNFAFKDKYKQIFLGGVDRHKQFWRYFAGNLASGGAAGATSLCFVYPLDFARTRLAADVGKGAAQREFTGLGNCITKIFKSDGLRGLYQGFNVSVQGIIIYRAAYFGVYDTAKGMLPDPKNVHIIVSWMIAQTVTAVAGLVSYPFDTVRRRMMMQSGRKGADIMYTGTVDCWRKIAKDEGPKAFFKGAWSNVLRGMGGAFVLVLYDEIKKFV
Assay: […]ADP uptake in isolated bovine heart mitochondria with […] atractyloside; import decreased to […]
Type: cell-based

Work on C=C1[C@@H]2CC[C@H]3[C@]4(C)C[C@H](O[C@@H]5O[C@H](CO)[C@@H](OS(=O)(=O)O)[C@H](OS(=O)(=O)O)[C@H]5OC(=O)CC(C)C)C[C@@H](C(=O)O)[C@H]4CC[C@]3(C2)[C@H]1O [atractyloside] yielded a remaining activity at 50 µM of 13.8 ± 1.1%.

Reference: paper PMC4586513, “Mitochondrial ADP/ATP exchange inhibition: a novel off-target mechanism underlying ibipinabant-induced myotoxicity” (Scientific Reports, 2015)
